# Literature values as cited in patent US20090197966A1, “Use of Hypothermia Inducing Drugs” (priority 2006, published 2009).
# Where two headings read alike, the source gives them in different places.
# Tested on: TRPV1 receptor
# Conditions: systemic administration
smiles,measurement,setting,value
"COc1cc(CNC(=O)CCCC/C=C/C(C)C)ccc1O [capsaicin, 8-methyl-N-vallilyl-6-nonenamide]",hypothermic response,mammals,dramatic hypothermic response
same,hypothermic response,mice lacking the TRPV1 gene,absent
